Laboratory results taken from patent publication US11673910B2, “Macrolides with modified desosamine sugars and uses thereof” (Zikani Therapeutics, Inc., priority 2017, dated 2023).
Converted amounts (≈) assume the structure as drawn.

Experiments:
Assay type in all cases: cell-based
[1] = system: E. coli strain MP-4; assay: Broth dilution MIC determination (CLSI) against E. coli strain MP-4; settings: Escherichia coli, MP4
Method in brief: (§1)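 CLSI broth microdilution, macrolide test compounds; MIC reported as category: ≤4 mg/L = +++, 8–<32 mg/L = ++, ≥32 mg/L = +.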

[2] = system: P. aeruginosa strain MP-3; assay: Broth dilution MIC determination (CLSI) against P. aeruginosa strain MP-3; settings: Pseudomonas aeruginosa, MP3
Method in brief: as §1

[3] = system: A. baumannii strain MP-15; assay: Broth dilution MIC determination (CLSI) against A. baumannii strain MP-15; settings: Acinetobacter baumannii, MP15
Method in brief: as §1

[4] = system: S. aureus strain MP-12; assay: Broth dilution MIC determination (CLSI) against S. aureus strain MP-12; settings: Staphylococcus aureus, MP12, strain MP-12
Method in brief: as §1

[5] = system: K. pneumoniae strain MP-548; assay: Broth dilution MIC determination (CLSI) against K. pneumoniae strain MP-548; settings: Klebsiella pneumoniae, MP548
Method in brief: as §1

Compound | MIC [1] | MIC [2] | MIC [3] | MIC [4] | MIC [5]
CC[C@H]1OC(=O)C(C)C(=O)[C@H](C)[C@@H](O[C@@H]2OC(CNCCc3ccc(F)cc3)CC(N(C)C)C2O)[C@](C)(OC)C[C@@H](C)CN[C@H](C)[C@H]2NC(=O)O[C@@]21C (stereo partly drawn) [Compound 39] | ≤ 4 mg/L | ≥ 32 mg/L | ≥ 32 mg/L | ≥ 32 mg/L | ≥ 32 mg/L
C=CC1CO[C@@]2(C)C[C@@H](C)CN[C@H](C)[C@H]3NC(=O)O[C@]3(C)[C@@H](CC)OC(=O)[C@@]1(C)C(=O)[C@H](C)[C@H]2OC1OC(C)CC(N(C)C)C1O (stereo partly drawn) [Compound 224] | ≥ 32 mg/L | ≥ 32 mg/L | ≥ 32 mg/L | ≥ 32 mg/L | ≥ 32 mg/L
CC[C@H]1OC(=O)[C@@]2(C)CCO[C@](C)(C[C@@H](C)CN[C@H](C)[C@H]3NC(=O)O[C@@]31C)[C@H](O[C@@H]1O[C@H](CNC3CC3)C[C@H](N(C)C)[C@H]1O)[C@@H](C)C2=O [Compound 202] | ≤ 4 mg/L | ≥ 32 mg/L | 8 to 32 mg/L (≈ 11.7 to 47 µM) | ≤ 4 mg/L | ≤ 4 mg/L
CC[C@H]1OC(=O)C(C)C(=O)[C@H](C)[C@@H](O[C@@H]2OC(CNCc3cccc(C#N)c3)CC(N(C)C)C2O)[C@](C)(OC)C[C@@H](C)CN[C@H](C)[C@H]2NC(=O)O[C@@]21C (stereo partly drawn) [Compound 41] | ≤ 4 mg/L | ≥ 32 mg/L | ≥ 32 mg/L | ≥ 32 mg/L | ≥ 32 mg/L
CC[C@H]1OC(=O)C(C)C(=O)[C@H](C)[C@@H](O[C@@H]2OC(CNCc3nccn3C)CC(N(C)C)C2O)[C@](C)(OC)C[C@@H](C)CN[C@H](C)[C@H]2NC(=O)O[C@@]21C (stereo partly drawn) [Compound 25] | ≥ 32 mg/L | ≥ 32 mg/L | ≥ 32 mg/L | ≥ 32 mg/L | ≥ 32 mg/L
CC[C@H]1OC(=O)C(C)C(=O)[C@H](C)[C@@H](O[C@@H]2O[C@H]([C@H](C)N3CCCCC3)CC(N(C)C)[C@H]2O)[C@](C)(OC)C[C@@H](C)CN[C@H](C)[C@H]2NC(=O)O[C@@]21C (stereo partly drawn) [Compound 179, 3-Descladinosyl-3-oxo-6-O-methyl-N9a-desmethyl-11,12-dideoxy-12,11-(oxycarbonylimino)-6′-((S)-1-(piperidin-1-yl)ethyl) Azithromycin] | ≤ 4 mg/L | ≥ 32 mg/L | ≥ 32 mg/L | ≥ 32 mg/L | 8 to 32 mg/L (≈ 11.3 to 45 µM)
CCCCCCCCNCC1CC(N(C)C)C(O)[C@H](O[C@@H]2[C@@H](C)C(=O)C(C)C(=O)O[C@H](CC)[C@@]3(C)OC(=O)N[C@@H]3[C@@H](C)NC[C@H](C)C[C@@]2(C)OC)O1 (stereo partly drawn) [Compound 54] | 8 to 32 mg/L (≈ 10.8 to 43.2 µM) | ≥ 32 mg/L | ≥ 32 mg/L | ≥ 32 mg/L | ≥ 32 mg/L
CC[C@H]1OC(=O)C(C)C(=O)[C@H](C)[C@@H](O[C@@H]2OC(CNCc3cccc(OC)c3)CC(N(C)C)C2O)[C@](C)(OC)C[C@@H](C)CN[C@H](C)[C@H]2NC(=O)O[C@@]21C (stereo partly drawn) [Compound 43] | ≤ 4 mg/L | ≥ 32 mg/L | ≥ 32 mg/L | ≥ 32 mg/L | ≥ 32 mg/L

Continued, values first:

MIC [1] | MIC [2] | MIC [3] | MIC [4] | MIC [5] | Compound
≥ 32 mg/L | ≥ 32 mg/L | ≥ 32 mg/L | ≥ 32 mg/L | ≥ 32 mg/L | CC[C@H]1OC(=O)C(C)C(=O)[C@H](C)[C@@H](OC2OC(CN3CC(O)C3)CC(N(C)C)C2O)[C@](C)(OC)C[C@@H](C)CN[C@H](C)[C@H]2NC(=O)O[C@@]21C (stereo partly drawn) [Compound 128, 3-Descladinosyl-3-oxo-6-O-methyl-N9a-desmethyl-11,12-dideoxy-12,11-(oxycarbonylimino)-6′-(3-hydroxy-1-azetidinyl) Azithromycin]
8 to 32 mg/L (≈ 12 to 47.8 µM) | ≥ 32 mg/L | ≥ 32 mg/L | ≥ 32 mg/L | ≥ 32 mg/L | CC[C@H]1OC(=O)C(C)C(=O)[C@H](C)[C@@H](OC2OC(CN3CCC3)CC(N(C)C)C2O)[C@](C)(OC)C[C@@H](C)CN[C@H](C)[C@H]2NC(=O)O[C@@]21C (stereo partly drawn) [Compound 121, 3-Descladinosyl-3-oxo-6-O-methyl-N9a-desmethyl-11,12-dideoxy-12,11-(oxycarbonylimino)-6′-(1-azetininyl) Azithromycin]
≤ 4 mg/L | ≥ 32 mg/L | ≥ 32 mg/L | ≥ 32 mg/L | ≥ 32 mg/L | CC[C@H]1OC(=O)C(C)C(=O)[C@H](C)[C@@H](O[C@@H]2O[C@H](CN(C)C(=O)CN(C)C)CC(N(C)C)[C@H]2O)[C@](C)(OC)C[C@@H](C)CN[C@H](C)[C@H]2NC(=O)O[C@@]21C (stereo partly drawn) [Compound 171, 3-Descladinosyl-3-oxo-6-O-methyl-N9a-desmethyl-11,12-dideoxy-12,11-(oxycarbonylimino)-6′-N-methyl-2″-dimethylamino-acetamide Azithromycin]
≤ 4 mg/L | ≥ 32 mg/L | 8 to 32 mg/L (≈ 11.3 to 45.4 µM) | 8 to 32 mg/L (≈ 11.3 to 45.4 µM) | 8 to 32 mg/L (≈ 11.3 to 45.4 µM) | CC[C@H]1OC(=O)C(C)C(=O)[C@H](C)[C@@H](OC2OC(CN3CC(F)(F)C3)CC(N(C)C)C2O)[C@](C)(OC)C[C@@H](C)CN[C@H](C)[C@H]2NC(=O)O[C@@]21C (stereo partly drawn) [Compound 139, 3-Descladinosyl-3-oxo-6-O-methyl-N9a-desmethyl-11,12-dideoxy-12,11-(oxycarbonylimino)-6′-(3″,3″-difluoroazetidinyl) Azithromycin]
≥ 32 mg/L | ≥ 32 mg/L | ≥ 32 mg/L | ≥ 32 mg/L | ≥ 32 mg/L | CC[C@H]1OC(=O)C(C)C(=O)[C@H](C)[C@@H](O[C@@H]2O[C@H]([C@@H](C)N(C)C)CC(N(C)C)[C@H]2O)[C@](C)(OC)C[C@@H](C)CN[C@H](C)[C@H]2NC(=O)O[C@@]21C (stereo partly drawn) [Compound 176, 3-Descladinosyl-3-oxo-6-O-methyl-N9a-desmethyl-11,12-dideoxy-12,11-(oxycarbonylimino)-6′-((R)-(dimethylamino)ethyl) Azithromycin]
≤ 4 mg/L | ≥ 32 mg/L | ≥ 32 mg/L | ≥ 32 mg/L | 8 to 32 mg/L (≈ 11.4 to 45.7 µM) | CC[C@H]1OC(=O)C(C)C(=O)[C@H](C)[C@@H](OC2OC(CN(C)CCOC)CC(N(C)C)C2O)[C@](C)(OC)C[C@@H](C)CN[C@H](C)[C@H]2NC(=O)O[C@@]21C (stereo partly drawn) [Compound 131, 3-Descladinosyl-3-oxo-6-O-methyl-N9a-desmethyl-11,12-dideoxy-12,11-(oxycarbonylimino)-6′-[N-(methyl)-2-methoxyethylamino]Azithromycin]
≤ 4 mg/L | ≥ 32 mg/L | ≥ 32 mg/L | ≥ 32 mg/L | 8 to 32 mg/L (≈ 11.2 to 44.9 µM) | CC[C@H]1OC(=O)C(C)C(=O)[C@H](C)[C@@H](OC2OC(CN3CCN(C)CC3)CC(N(C)C)C2O)[C@](C)(OC)C[C@@H](C)CN[C@H](C)[C@H]2NC(=O)O[C@@]21C (stereo partly drawn) [Compound 126, 3-Descladinosyl-3-oxo-6-O-methyl-N9a-desmethyl-11,12-dideoxy-12,11-(oxycarbonylimino)-6′-(1-(4-methyl)-piperazinyl) Azithromycin]
